One molecule from patent US20140024663A1, “ATB(0,+) AMINO ACID TRANSPORTER AS A DRUG TARGET FOR TREATMENT OF ESTROGEN RECEPTOR-POSITIVE BREAST CANCER” (GEORGIA HEALTH SCIENCES UNIVERSITY RESEARCH INSTITUTE, INC., priority 2012, published 2014) can be followed below.

Holding throughout (assay type): cell-based, human
For test [1], the system named is MCF7 cells. The experiment in a line: SLC6A14 mRNA by RT-PCR in phenol red-free medium with or without estradiol. The following applies: estradiol 10 nM, 24 h, versus absence of estradiol. As for the experimental part: FIG. 11. Estrogen-dependent suppression of the efficacy of α-MT to induce ASNS and CHOP expression in MCF7 cells. MCF7 cells were cultured in a phenol red-free medium in the absence or presence of estradiol (E2, 10 nM) for 24 h and then treated without or with α-MT (2.5 mM, 24 h). The cells were then used for analysis of SLC6A14, asparagine synthetase (ASNS), and CHOP mRNA levels by RT-PCR. Hypoxanthine/guanine phosphoribosyltransferase-1 (HPRT1) mRNA levels were used as an internal control.
RT-PCR. Total RNA was isolated using TRIZOL™ (Invitrogen). 2 μg of RNA was reverse transcribed using the GeneAmp PCR System (Applied Biosystems, Branchburg, N.J.). PCR reaction was performed under optimal conditions specific for each of the primer pairs. GAPDH (glyceraldehyde-3-phosphate dehydrogenase) or HPRT1 (hypoxanthine/guanine phosphoribosyl transferase-1) were used as internal controls. PCR products were size-fractionated on agarose gel, stained with ethidium bromide and imaged using Alpha Imager (Santa Clara, Calif.). Densitometry was performed on PCR bands and normalized to the internal control. Normalized values were used to compare mRNA levels of target genes. Primers used for PCR were as follows.

In test [2] the test system is BT474 cells. Kind of test: SLC6A14 and ER mRNA by RT-PCR after estradiol/antiestrogen treatment. The conditions noted are these: 24 h. How it is done:
(§1) FIGS. 2A-2C. Regulation of SLC6A14 expression by estrogen/ER. In FIG. 2A, ZR75.1 and BT474 cells were cultured for 5-6 passages in control medium (10% fetal bovine serum with phenol red) and phenol red-free medium (10% or 5% charcoal-stripped fetal bovine serum), and then the levels of ERa mRNA and SLC6A14 mRNA were determined by RT-PCR (P1, P2, P3, P4, P5, and P6 refer to passage numbers). In FIG. 2B, BT474 cells were treated with estradiol (10 nM) in the presence or absence of antiestrogens (1 μM) for 24 h, and then used for RT-PCR analysis of SLC6A14 mRNA and ERa mRNA (E2, estradiol; TAM, tamoxifen; 4-OH TAM, 4-hydroxytamoxifen; ICI 182780, FULVESTRANT™). […] Following the treatment, the reporter activity was measured. […]
(§2) Analysis of SLC6A14 as an estrogen/ER target. The influence of estrogen on SLC6A14 expression was assessed in ER-positive breast cancer cells (ZR75.1 and BT474) by culturing them for several passages in the absence of phenol red, and then monitoring the levels of SLC6A14 mRNA. […] Luciferase activity was measured in cell lysates using Luciferase Assay Reagent (Promega). β-galactosidase activity in the same cell lysates was used for normalization of the promoter activity for differences in transfection efficiency.

The subject of test [3] is SLC6A14 promoter in BT474 cells. Kind of test: SLC6A14-promoter luciferase reporter assay. The following applies: BT474, estradiol 10 nM, normalized with β-galactosidase activity. As for the experimental part:
as §1, §2
Background: A reporter such as luciferase makes a cellular process visible.

Molecules are shown by their SMILES.

Regarding `C[C@]12CC[C@@H]3c4ccc(O)cc4CC[C@H]3[C@@H]1CC[C@@H]2O` [estradiol], the “expression of SLC6A14” value in test [1] is given as “higher”. For the same molecule, the “SLC6A14 mRNA levels” value in test [2] (BT474, estradiol 10 nM) is reported as “increased”. Moreover, the “expression of ER” value in test [2] (BT474, estradiol) is “did not have any noticeable effect”. In addition, the “enhancement of SLC6A14-promoter (luciferase) activity” value in test [3] was 6 fold.
